Measured values published in patent US10183944B2 (Asana Biosciences, LLC, priority 2011, dated 2019).
pEC50, pIC50: −log10 of the molar value. Structures can show the parent of a compound that is named as a salt. Where two headings read alike, the source gives them in different places.

What was measured:
[1] = target: Syk (356-635 amino acids) catalytic domain (Homo sapiens (Human), UniProt P43405); assay: Inhibition of enzymatic Syk kinase activity (radiometric); type: biochemical; conditions: read-out: IC50 Syk
Method in brief: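 Human Syk (356-635) kinase domain (0.035–7.5 ng/reaction) preincubated with compound 30 minutes at room temperature, then reacted with pG4T substrate, 100 μM ATP (stock) and γ-32P-ATP for 10 minutes at 30° C. Reaction stopped with HCl/ATP, spotted on P81 paper, washed and counted by scintillation. Percent inhibition versus no-compound counts.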

JAK2 = JAK2 (Homo sapiens (Human), UniProt O60674); assay: Inhibition of enzymatic JAK2 kinase activity (TR-FRET); type: biochemical; conditions: read-out: IC50 JAK
Chain of JAK2 (O60674 808-1132): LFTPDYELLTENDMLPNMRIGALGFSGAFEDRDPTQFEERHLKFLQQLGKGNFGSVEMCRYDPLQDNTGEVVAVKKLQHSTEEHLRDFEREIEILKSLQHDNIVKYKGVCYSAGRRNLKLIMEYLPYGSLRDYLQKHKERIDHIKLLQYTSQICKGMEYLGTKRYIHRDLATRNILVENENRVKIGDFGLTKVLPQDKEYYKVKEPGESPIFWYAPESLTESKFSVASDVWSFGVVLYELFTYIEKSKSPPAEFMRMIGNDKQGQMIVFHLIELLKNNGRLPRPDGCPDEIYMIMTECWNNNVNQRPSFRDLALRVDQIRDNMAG
Method in brief: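 Enzyme preincubated with compound 30 min at RT, then Ulight-poly-GT substrate and ATP added for 60 min at RT. EDTA stop, Eu-antiphosphotyrosine antibody; TR-FRET ratio 665/615 nm (ex 340 nm), blank-corrected; % inhibition versus positive control.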

RBL2H3 cells = assay: Degranulation assay: β-hexosaminidase release during immune complex mediated degranulation; type: cell-based, rat; conditions: Rattus norvegicus, RBL-2H3; for inhibition at 1 µM: read-out: Degranulation % inhibition at 1 μM; for pEC50: read-out: Degranulation EC50
Method in brief: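 RBL2H3 cells sensitized overnight (or 24 h) with anti-DNP rat IgE, pretreated 15 min with compounds in 0.5% DMSO, then challenged with DNP-BSA for 45–60 min. β-Hexosaminidase in supernatant read fluorometrically (Ex 355/Em 460 nm) with β-NAG substrate, 30 min RT; % release/inhibition calculated.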

[2] = Assay Protocol B (96 well format)

Row | Compound | pIC50 [1] | pIC50 (JAK2) | pEC50 (RBL2H3 cells; [2]) | inhibition at 1 µM (RBL2H3 cells; [2]) | inhibition at 1 µM (RBL2H3 cells; Assay Protocol A (24 well format))
1 | CC(C)(O)C(=O)N1CCN(c2ccc(Nc3nc(N4CCCCCC4)nc4cn[nH]c(=O)c34)cc2)CC1 [Example 214, 2-(azepan-1-yl)-4-((4-(4-(2-hydroxy-2-methylpropanoyl)piperazin-1-yl)phenyl)amino)pyrimido[4,5-d]pyridazin-5(6H)-one] | > 8.00 | > 8.00 | 7.72 | 78% | –
2 | CCN1CCN(Cc2ccc(Nc3nc(-c4ccccc4)nc4cn[nH]c(=O)c34)cc2)CC1 [Example 6, 4-(4-((4-ethylpiperazin-1-yl)methyl)phenylamino)-2-phenylpyrimido[4,5-d]pyridazin-5(6H)-one] | > 7.30 | > 7.30 | – | – | 50%
3 | O=C(O)CCC1CCN(c2ccc(Nc3nc(-c4ccccc4)nc4cn[nH]c(=O)c34)cc2)CC1 [Example 132, 3-(1-(4-((5-oxo-2-phenyl-5,6-dihydropyrimido[4,5-d]pyridazin-4-yl)amino)phenyl)piperidin-4-yl)propanoic acid] | > 7.30 | > 8.00 | 7.62 | 99% | –
4 | O=C(O)CC1CCN(c2ccc(Nc3nc(-c4ccccc4)nc4cn[nH]c(=O)c34)cc2)CC1 [Example 34, 2-(1-(4-(5-oxo-2-phenyl-5,6-dihydropyrimido[4,5-d]pyridazin-4-ylamino)phenyl)piperidin-4-yl)acetic acid] | > 7.30 | > 7.30 | 6.42 | 80% | –
5 | O=C(O)CC1CCN(c2nc(Nc3ccc(CN4CCNCC4)cc3)c3c(=O)[nH]ncc3n2)CC1 [Example 43, 2-(1-(5-oxo-4-((4-(piperazin-1-ylmethyl)phenyl)amino)-5,6-dihydropyrimido[4,5-d]pyridazin-2-yl)piperidin-4-yl)acetic acid hydrochloride] | > 7.30 | > 7.00 | – | 13% | –
6 | N#CCC1CCN(c2nc(Nc3ccc(N4CCNCC4)cc3)c3c(=O)[nH]ncc3n2)CC1 [Example 193, 2-(1-(5-oxo-4-((4-(piperazin-1-yl)phenyl)amino)-5,6-dihydropyrimido[4,5-d]pyridazin-2-yl)piperidin-4-yl)acetonitrile] | > 8.00 | > 8.00 | 7.77 | 93% | –
7 | N#CCC1CCN(c2nc(Nc3ccc(N(CCO)CCO)cc3)c3c(=O)[nH]ncc3n2)CC1 [Example 307, 2-(1-(4-((4-(bis(2-hydroxyethyl)amino)phenyl)amino)-5-oxo-5,6-dihydropyrimido[4,5-d]pyridazin-2-yl)piperidin-4-yl)acetonitrile] | > 8.00 | > 8.00 | 6.51 | 14% | –
8 | CC(C)(CO)N1CCCN(c2ccc(Nc3nc(N4CCC(CC#N)CC4)nc4cn[nH]c(=O)c34)cc2)CC1 [Example 297, 2-(1-(4-((4-(4-(1-hydroxy-2-methylpropan-2-yl)-1,4-diazepan-1-yl)phenyl)amino)-5-oxo-5,6-dihydropyrimido[4,5-d]pyridazin-2-yl)piperidin-4-yl)acetonitrile] | > 8.00 | > 7.30 | 7.74 | 99% | –
9 | N#CCC1CCN(c2nc(Nc3ccc(OCCN)cc3)c3c(=O)[nH]ncc3n2)CC1 [Example 200, 2-(1-(4-((4-(2-aminoethoxy)phenyl)amino)-5-oxo-5,6-dihydropyrimido[4,5-d]pyridazin-2-yl)piperidin-4-yl) acetonitrile] | > 8.00 | > 7.30 | 7.18 | 71% | –
10 | N#CCC1CCN(c2nc(Nc3ccc(CCC(=O)O)cc3)c3c(=O)[nH]ncc3n2)CC1 [Example 305, 3-(4-((2-(4-(cyanomethyl)piperidin-1-yl)-5-oxo-5,6-dihydropyrimido[4,5-d]pyridazin-4-yl)amino)phenyl)propanoic acid] | > 8.00 | > 7.30 | 6.08 | 17% | –

Further lines, with some results ahead:

Row | pIC50 [1] | pIC50 (JAK2) | pEC50 (RBL2H3 cells; [2]) | Compound | inhibition at 1 µM (RBL2H3 cells; [2]) | inhibition at 1 µM (RBL2H3 cells; Assay Protocol A (24 well format))
11 | > 8.00 | > 8.00 | 7.74 | O=c1[nH]ncc2nc(N3CCCCCC3)nc(Nc3ccc(N4CCOCC4)cc3)c12 [Example 60, 2-(azepan-1-yl)-4-((4-morpholinophenyl)amino)pyrimido[4,5-d]pyridazin-5(6H)-one] | 100% | –
12 | > 8.00 | > 8.00 | 7.85 | O=C(O)CCN1CCN(c2ccc(Nc3nc(N4CCCCCC4)nc4cn[nH]c(=O)c34)cc2)CC1 [Example 208, 3-(4-(4-((2-(azepan-1-yl)-5-oxo-5,6-dihydropyrimido[4,5-d]pyridazin-4-yl)amino)phenyl)piperazin-1-yl) propanoic acid] | 21% | –
13 | > 8.00 | > 7.30 | 7.03 | O=c1[nH]ncc2nc(N3CCCCCC3)nc(Nc3ccc(OCCN4CCNCC4)cc3)c12 [Example 107, 2-(azepan-1-yl)-4-((4-(2-(piperazin-1-yl)ethoxy)phenyl)amino)pyrimido[4,5-d]pyridazin-5(6H)-one] | 91% | –
14 | > 8.00 | > 8.00 | 7.68 | CN(C)CCN1CCN(c2ccc(Nc3nc(N4CCCCCC4)nc4cn[nH]c(=O)c34)cc2)CC1 [Example 267, 2-(azepan-1-yl)-4-((4-(4-(2-(dimethylamino)ethyl)piperazin-1-yl)phenyl)amino)pyrimido[4,5-d]pyridazin-5(6H)-one] | 90% | –
15 | > 7.30 | > 7.30 | – | CN1CCN(CCOc2ccc(Nc3nc(N4CCCCCC4)nc4cn[nH]c(=O)c34)cc2)CC1 [Example 95, 2-(azepan-1-yl)-4-((4-(2-(4-methylpiperazin-1-yl)ethoxy)phenyl)amino)pyrimido[4,5-d]pyridazin-5(6H)-one] | 35% | –
16 | > 8.00 | > 8.00 | 7.68 | O=c1[nH]ncc2nc(N3CCCCCC3)nc(Nc3ccc(N4CCN(CC(O)CO)CC4)cc3)c12 (stereo not shown) [Example 273, 2-(azepan-1-yl)-4-((4-(4-(2,3-dihydroxypropyl)piperazin-1-yl)phenyl)amino)pyrimido[4,5-d]pyridazin-5(6H)-one] | 91% | –
17 | > 8.00 | > 8.00 | 7.26 | O=C(O)CCc1ccc(Nc2nc(N3CCCCCC3)nc3cn[nH]c(=O)c23)cc1 [Example 304, 3-(4-((2-(azepan-1-yl)-5-oxo-5,6-dihydropyrimido[4,5-d]pyridazin-4-yl)amino)phenyl)propanoic acid] | 70% | –
18 | > 8.00 | > 7.30 | 5.92 | O=C(O)CN1CCC(Oc2ccc(Nc3nc(N4CCCCCC4)nc4cn[nH]c(=O)c34)cc2)CC1 [Example 254, 2-(4-(4-((2-(azepan-1-yl)-5-oxo-5,6-dihydropyrimido[4,5-d]pyridazin-4-yl)amino)phenoxy)piperidin-1-yl) acetic acid] | 24% | –
19 | > 8.00 | > 8.00 | 7.57 | O=c1[nH]ncc2nc(N3CCCCCC3)nc(Nc3ccc(N4CCNCC4)cc3)c12 [Example 192, 2-(azepan-1-yl)-4-((4-(piperazin-1-yl)phenyl)amino)pyrimido[4,5-d]pyridazin-5(6H)-one] | 82% | –
20 | > 7.30 | > 7.00 | 6.49 | O=c1[nH]ncc2nc(N3CCCCC3)nc(Nc3ccc(OCCN4CCNCC4)cc3)c12 [Example 153, 4-((4-(2-(piperazin-1-yl)ethoxy)phenyl)amino)-2-(piperidin-1-yl)pyrimido[4,5-d]pyridazin-5(6H)-one] | 47% | –
21 | > 7.00 | > 7.00 | – | O=c1[nH]ncc2nc(N3CCCC3)nc(Nc3ccc(CN4CCNCC4)cc3)c12 [Example 48, 4-((4-(piperazin-1-ylmethyl)phenyl)amino)-2-(pyrrolidin-1-yl)pyrimido[4,5-d]pyridazin-5(6H)-one hydrochloride] | 100% | –
22 | > 7.30 | > 7.30 | 7.54 | O=c1[nH]ncc2nc(N3CCCCCC3)nc(Nc3ccc(CCCN4CCNCC4)cc3)c12 [Example 173, 2-(azepan-1-yl)-4-((4-(3-(piperazin-1-yl)propyl)phenyl)amino)pyrimido[4,5-d]pyridazin-5(6H)-one] | 66% | –
23 | > 8.00 | > 8.00 | 8.05 | O=c1[nH]ncc2nc(N3CCCCCC3)nc(Nc3ccc(CCCN4CCC(O)CC4)cc3)c12 [Example 179, 2-(azepan-1-yl)-4-((4-(3-(4-hydroxypiperidin-1-yl)propyl)phenyl)amino)pyrimido[4,5-d]pyridazin-5(6H)-one] | 45% | –
